The source of these data is article PMC11997999, “Uncovering α-Selectivity for Liver X Receptor Agonists for Lipotoxic Cancer Therapies” (Journal of Medicinal Chemistry, 2025).

Experiment [1] deals with T1, LXRα LBD (GST) (Homo sapiens, UniProt Q13133).
T1 construct: 5 nM LXRα LBD (GST); 10 nM LXRβ LBD (GST); purchased ThermoFisher Scientific PV4655
T1 sequence (Q13133 209-447 limits assumed): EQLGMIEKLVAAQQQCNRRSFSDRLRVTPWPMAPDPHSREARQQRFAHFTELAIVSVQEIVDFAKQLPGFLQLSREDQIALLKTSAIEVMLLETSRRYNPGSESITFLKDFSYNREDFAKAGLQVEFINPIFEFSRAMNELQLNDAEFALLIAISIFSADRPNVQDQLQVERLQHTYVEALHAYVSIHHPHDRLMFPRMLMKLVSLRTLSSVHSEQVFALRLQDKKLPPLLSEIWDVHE
The experiment can be described thus: Time-resolved LXR FRET assay (LanthaScreen TR-FRET LXRα Coactivator Assay Kit). The experiment is classed as biochemical. The conditions noted are these: for TR-FRET activity on LXRα, in words: statement made for both isoforms. As to the method: (§1) The biochemical TR-FRET assays were performed using the LanthaScreen TR-FRET LXRα Coactivator Assay Kit, goat (ThermoFisher Scientific, PV4655), and the LanthaScreen TR-FRET LXRβ assay kit, goat (ThermoFisher Scientific, PV4658), according to the manufacturer’s instructions using the following concentrations: 5 nM LXRα LBD (GST); 10 nM LXRβ LBD (GST); 500 nM fluorescein-TRAP220/DRIP-2; 200 nM fluorescein-D22; 10 nM Tb anti-GST antibody. The TR-FRET signals were measured after 6 h using a TECAN SPARK multimode microplate reader with the following settings: first excitation wavelength: 360 nm (bandwidth 35 nm), first emission wavelength: 485 nm (bandwidth 20 nm); second excitation wavelength: 360 nm (bandwidth 35 nm), second emission wavelength: 535 nm (bandwidth 25 nm); integration time: 200 μs; lag time: 100 μs; settle time: 0 ms.

For experiment [2], the target named is T2, LXRβ LBD (GST) (Homo sapiens, UniProt P55055).
T2 construct: 5 nM LXRα LBD (GST); 10 nM LXRβ LBD (GST); purchased ThermoFisher Scientific PV4658
T2 sequence (P55055 222-460 limits assumed): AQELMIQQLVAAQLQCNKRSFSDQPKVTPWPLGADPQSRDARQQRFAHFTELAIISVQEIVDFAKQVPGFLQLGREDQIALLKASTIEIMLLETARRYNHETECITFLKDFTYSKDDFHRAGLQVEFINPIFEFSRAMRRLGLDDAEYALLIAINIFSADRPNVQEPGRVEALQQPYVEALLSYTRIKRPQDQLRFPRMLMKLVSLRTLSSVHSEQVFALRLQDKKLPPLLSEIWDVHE
The experiment can be described thus: Time-resolved LXR FRET assay (LanthaScreen TR-FRET LXRβ assay kit). It counts as biochemical. The conditions noted are these: for TR-FRET activity on LXRβ, in words: statement made for both isoforms. On the procedure: as §1
A general note: TR-FRET usually uses a lanthanide donor and a delayed reading to cut background.

Setting [3] is: 5 nM LXRα LBD (GST), read after 6 h, R^2 of fit given, read-out: TR-FRET activity (EC50) LXRα.
The mark [4] stands for this setting: 10 nM LXRβ LBD (GST), read after 6 h, R^2 of fit given, read-out: TR-FRET activity (EC50) LXRβ.
Where [5] appears, read: supplement list of compounds, LXRα, unit inferred, read-out: FRET activity a.
Setting [6] is: supplement list of compounds, (LXRβ), unit inferred, read-out: FRET activity b.

Structures are written as SMILES. Where two headings read alike, the source gives them in different places.

On to `O=C1C(Nc2ccc(O)cc2)=C(c2ccccc2)C(=O)N1Cc1ccccc1` [Compound 33, 1-Benzyl-3-((4-hydroxyphenyl)amino)-4-phenyl-1H-pyrrole-2,5-dione], for which the results for the EC50 in experiment [1] (setting [3]) and in experiment [2] (setting [4]) were 390 nM and 206 nM, respectively.
With `O=C1C(Nc2ccc(NC3CCNCC3)cc2)=C(c2ccccc2)C(=O)N1Cc1ccccc1` [Compound 47, 1-Benzyl-3-phenyl-4-((4-(piperidin-4-ylamino)phenyl)amino)-1H-pyrrole-2,5-dione], the EC50 in experiment [1] (setting [5]) turned out to be 618 nM.
As for `COc1ccc(CN2C(=O)C(Nc3ccc(OC)cc3)=C(c3ccccc3)C2=O)cc1` [Compound 19, 1-(4-Methoxybenzyl)-3-((4-methoxyphenyl)amino)-4-phenyl-1H-pyrrole-2,5-dione], the EC50 in experiment [1] (setting [3]) amounted to 518 nM; in experiment [2] (setting [4]) it was 592 nM.
In the case of `CN1CCC(Nc2ccc(NC3=C(c4ccccc4)C(=O)N(Cc4ccccc4)C3=O)cc2)CC1` [Compound 48, 1-Benzyl-3-((4-((1-methylpiperidin-4-yl)amino)phenyl)amino)-4-phenyl-1H-pyrrole-2,5-dione], the EC50 in experiment [1] (setting [5]) stood at 786 nM; in experiment [2] (setting [6]), 150 nM.
In the same order, the values of `O=C(c1ccc(NC2=C(c3ccccc3)C(=O)N(Cc3ccccc3)C2=O)cc1)N1CCCCC1` [Compound 50, 1-Benzyl-3-phenyl-4-((4-(piperidine-1-carbonyl)phenyl)amino)-1H-pyrrole-2,5-dione] are 74 nM and 225 nM.
Consider `Cc1ccc(NC2=C(c3ccccc3)C(=O)N(Cc3ccccc3)C2=O)cc1` [Compound 32, 1-Benzyl-3-phenyl-4-(p-tolylamino)-1H-pyrrole-2,5-dione], for which the EC50 was 825 nM in experiment [1] (setting [3]) and 617 nM in experiment [2] (setting [4]).
As for `O=C1C(Nc2ccc(F)cc2)=C(c2ccccc2)C(=O)N1Cc1ccccc1` [Compound 31, 1-Benzyl-3-((4-fluorophenyl)amino)-4-phenyl-1H-pyrrole-2,5-dione], the EC50 in experiment [1] (setting [3]) was 335 nM; in experiment [2] (setting [4]), 548 nM.
Take `COc1ccc(NC2=C(c3ccccc3)C(=O)N(CC3CC3)C2=O)cc1` [Compound 23, 1-(Cyclopropylmethyl)-3-((4-methoxyphenyl)amino)-4-phenyl-1H-pyrrole-2,5-dione]: the values for the EC50 in experiment [1] (setting [3]) and in experiment [2] (setting [4]) were 342 nM and 163 nM, respectively.
Regarding `O=C1CCN(c2ccc(NC3=C(c4ccccc4)C(=O)N(Cc4ccccc4)C3=O)cc2)CC1` [Compound 49, 1-Benzyl-3-((4-(4-oxopiperidin-1-yl)phenyl)amino)-4-phenyl-1H-pyrrole-2,5-dione], the figures for the EC50 in experiment [1] (setting [5]) and in experiment [2] (setting [6]) were 103 nM and 130 nM, respectively.
Take `COc1cc(NC2=C(c3ccccc3)C(=O)N(Cc3ccccc3)C2=O)cc(OC)c1` [Compound 39, 1-Benzyl-3-((3,5-dimethoxyphenyl)amino)-4-phenyl-1H-pyrrole-2,5-dione]: the EC50 in experiment [1] (setting [3]) came out at 737 nM; in experiment [2] (setting [4]), 1320 nM.
Take `O=C1NC(=O)C(c2ccccc2)=C1Nc1ccc(N2CCCCC2)cc1` [Compound 52, 3-Phenyl-4-((4-(piperidin-1-yl)phenyl)amino)-1H-pyrrole-2,5-dione]: the EC50 in experiment [1] (setting [3]) and in experiment [2] (setting [4]) was greater than 3000 nM each time. The “TR-FRET activity on LXRα, in words” value in experiment [1] is given as “no activity”. For the same compound, the “TR-FRET activity on LXRβ, in words” value in experiment [2] is reported as “no activity”.
Take `O=C1C(Nc2ccc(CO)cc2)=C(c2ccccc2)C(=O)N1Cc1ccccc1` [Compound 34, 1-Benzyl-3-((4-(hydroxymethyl)phenyl)amino)-4-phenyl-1H-pyrrole-2,5-dione]: the EC50 in experiment [1] (setting [3]) was determined as 278 nM; in experiment [2] (setting [4]) it was 133 nM.
Taken in the same sequence, the figures for `COc1ccc(NC2=C(c3ccccc3)C(=O)N(C(C)(C)C)C2=O)cc1` [Compound 24, 1-(tert-Butyl)-3-((4-methoxyphenyl)amino)-4-phenyl-1H-pyrrole-2,5-dione] were 245 nM and 232 nM.
Take `COc1ccc(NC2=C(c3ccccc3)C(=O)NC2=O)cc1` [Compound 25, 3-((4-Methoxyphenyl)amino)-4-phenyl-1H-pyrrole-2,5-dione]: the EC50 in experiment [1] (setting [3]) and in experiment [2] (setting [4]) was greater than 3000 nM each time. Also, in experiment [1], the “TR-FRET activity on LXRα, in words” value was “no activity”. Further, the “TR-FRET activity on LXRβ, in words” value in experiment [2] was “no activity”.
On to `COc1ccc(OC2=C(c3ccccc3)C(=O)N(Cc3ccccc3)C2=O)cc1` [Compound 26, 1-Benzyl-3-(4-methoxyphenoxy)-4-phenyl-1H-pyrrole-2,5-dione], for which the EC50 in experiment [1] (setting [3]) and in experiment [2] (setting [4]) was greater than 3000 nM in each case. In addition, the “TR-FRET activity on LXRα, in words” value in experiment [1] is “completely lost activity”. In addition, in experiment [2], the “TR-FRET activity on LXRβ, in words” value is listed as “completely lost activity”.
Consider `NC(=O)c1ccc(NC2=C(c3ccccc3)C(=O)N(Cc3ccccc3)C2=O)cc1` [Compound 36, 4-((1-Benzyl-2,5-dioxo-4-phenyl-2,5-dihydro-1H-pyrrol-3-yl)amino)benzamide], for which the EC50 in experiment [1] (setting [3]) and in experiment [2] (setting [4]) was greater than 3000 nM each time. Besides, the “TR-FRET activity on LXRα, in words” value in experiment [1] is recorded as “completely abolished activation”. Further, the “TR-FRET activity on LXRβ, in words” value in experiment [2] is given as “completely abolished activation”.
Regarding `CN(C)c1ccc(NC2=C(c3ccccc3)C(=O)N(Cc3ccccc3)C2=O)cc1` [Compound 35, 1-Benzyl-3-((4-(dimethylamino)phenyl)amino)-4-phenyl-1H-pyrrole-2,5-dione], the EC50 worked out at 71 nM in experiment [1] (setting [3]) and 91 nM in experiment [2] (setting [4]).
Taken in the same sequence, the figures for `O=C1C(Nc2ccccc2)=C(c2ccccc2)C(=O)N1Cc1ccccc1` [Compound 29, 1-Benzyl-3-phenyl-4-(phenylamino)-1H-pyrrole-2,5-dione] were 312 nM and 265 nM.
In the same order, the values of `COc1ccc(NC2=C(c3ccccc3)C(=O)N(Cc3ccc(C(C)(C)C)cc3)C2=O)cc1` [Compound 20, 1-(4-(tert-Butyl)benzyl)-3-((4-methoxyphenyl)amino)-4-phenyl-1H-pyrrole-2,5-dione] are greater than 3000 nM and greater than 3000 nM.
Consider `CN1CCN(c2ccc(NC3=C(c4ccccc4)C(=O)N(Cc4ccccc4)C3=O)cc2)CC1` [Compound 44, 1-Benzyl-3-((4-(4-methylpiperazin-1-yl)phenyl)amino)-4-phenyl-1H-pyrrole-2,5-dione], for which the “TR-FRET activity on LXRα, in words” value in experiment [1] is given as “no relevant activity”. The figures for the EC50 in experiment [1] (setting [5]) and in experiment [2] (setting [6]) were 379 nM and 657 nM, respectively. The “TR-FRET activity on LXRβ, in words” value in experiment [2] is “no relevant activity”.
For `COc1ccc(CNC2=C(c3ccccc3)C(=O)N(Cc3ccccc3)C2=O)cc1` [Compound 28, 1-Benzyl-3-((4-methoxybenzyl)amino)-4-phenyl-1H-pyrrole-2,5-dione], the EC50 in experiment [1] (setting [3]) and in experiment [2] (setting [4]) was greater than 3000 nM in each case. In addition, the “TR-FRET activity on LXRα, in words” value in experiment [1] was “no activity”. Also, the “TR-FRET activity on LXRβ, in words” value in experiment [2] is given as “no activity”.
Regarding `O=C1Cc2cc(NC3=C(c4ccccc4)C(=O)N(Cc4ccccc4)C3=O)ccc2N1` [Compound 37, 1-Benzyl-3-((2-oxoindolin-5-yl)amino)-4-phenyl-1H-pyrrole-2,5-dione], the EC50 was determined as 139 nM in experiment [1] (setting [3]) and 84 nM in experiment [2] (setting [4]).
In the same order, the values of `COc1ccc(NC2=C(c3ccccc3)C(=O)N(Cc3ccc(C)cc3)C2=O)cc1` [Compound 17, 3-((4-Methoxyphenyl)amino)-1-(4-methylbenzyl)-4-phenyl-1H-pyrrole-2,5-dione] are 579 nM and 332 nM.
Consider `COc1ccc(NC2=C(c3ccccc3)C(=O)N(Cc3ccc(F)cc3)C2=O)cc1` [Compound 16, 1-(4-Fluorobenzyl)-3-((4-methoxyphenyl)amino)-4-phenyl-1H-pyrrole-2,5-dione], for which the EC50 was 768 nM in experiment [1] (setting [3]) and 594 nM in experiment [2] (setting [4]).
`COc1ccc(NC2=C(c3ccccc3)C(=O)N(Cc3ccncc3)C2=O)cc1` [Compound 21, 3-((4-Methoxyphenyl)amino)-4-phenyl-1-(pyridin-4-ylmethyl)-1H-pyrrole-2,5-dione]: the EC50 in experiment [1] (setting [3]) was determined as 390 nM; in experiment [2] (setting [4]), 231 nM.
Regarding `COc1ccc(NC2=C(c3ccccc3)C(=O)N(CC3CCCCC3)C2=O)cc1` [Compound 22, 1-(Cyclohexylmethyl)-3-((4-methoxyphenyl)amino)-4-phenyl-1H-pyrrole-2,5-dione], the results for the EC50 in experiment [1] (setting [3]) and in experiment [2] (setting [4]) were 1960 nM and 2590 nM, respectively.
